Patent US20130225517A1, “Therapeutic Compounds” (University of Iowa Research Foundation, priority 2012, published 2013)
Like-named read-outs stand apart in the source and are kept apart here.

Columns and labels:
Dnmt1 [1] = target: T1, Dnmt1 (Homo sapiens, UniProt P26358); assay: Glal restriction endonuclease-coupled DNA methylation assay (Test A); assay type: biochemical
Description: (§1) A Glal restriction endonuclease-coupled DNA methylation assay was used to assess Dnmt1 activity (Syeda et al, J Biol Chem 2011, 286, 15344-15351). Upon methylation of the DNA substrate by Dnmt1, the DNA substrate is cleaved by Glal, freeing a 5′ fluorophore from the 3′ quencher, and generating a fluorescence signal. Inhibition of Dnmt1 results in a loss of fluorescence generation.
as §1, with “assay” for “assay was used”
First, laccaic acid was screened against the methyl-specific restriction endonuclease Glal (SibEnzyme, West Roxbury, Mass.) to ensure that the compound was not inhibiting Glal rather than Dnmt1. […] Increasing concentrations of laccaic acid A were used in the endonuclease-coupled DNA methylation assay to determine an IC50 value for the compound. […] Lastly, differential scanning fluorimetry was used to determine if laccaic acid A was a direct binder of Dnmt1 in the absence of the DNA or S-adenosyl methionine substrate.

[2] = system: methyl-specific restriction endonuclease Glal; assay: Counter-screen against methyl-specific restriction endonuclease Glal; assay type: biochemical; settings: under all conditions tested
Description: (§2) Laccaic acid A was further validated as a Dnmt1 inhibitor in three assays. First, laccaic acid was screened against the methyl-specific restriction endonuclease Glal (SibEnzyme, West Roxbury, Mass.) to ensure that the compound was not inhibiting Glal rather than Dnmt1. Under all conditions tested, Glal had full activity in the presence of laccaic acid A. Next, the concentration dependence of laccaic acid A inhibition on Dnmt1 activity was assessed. Increasing concentrations of laccaic acid A were used in the endonuclease-coupled DNA methylation assay to determine an IC50 value for the compound. Laccaic acid A was determined to have an IC50 value of 400 nM. […] Lastly, differential scanning fluorimetry was used to determine if laccaic acid A was a direct binder of Dnmt1 in the absence of the DNA or S-adenosyl methionine substrate.

Dnmt1 [3] = target: T1, Dnmt1; assay: Differential scanning fluorimetry, direct binding to Dnmt1; settings: increase from 44° C.; absence of the DNA or S-adenosyl methionine substrate
Description: as §2

[4] = Table 1, Glal restriction endonuclease-coupled DNA methylation assay, read-out: IC50 (μM), Dnmt1 inhibition activity

T1 sequence (P26358 whole entry): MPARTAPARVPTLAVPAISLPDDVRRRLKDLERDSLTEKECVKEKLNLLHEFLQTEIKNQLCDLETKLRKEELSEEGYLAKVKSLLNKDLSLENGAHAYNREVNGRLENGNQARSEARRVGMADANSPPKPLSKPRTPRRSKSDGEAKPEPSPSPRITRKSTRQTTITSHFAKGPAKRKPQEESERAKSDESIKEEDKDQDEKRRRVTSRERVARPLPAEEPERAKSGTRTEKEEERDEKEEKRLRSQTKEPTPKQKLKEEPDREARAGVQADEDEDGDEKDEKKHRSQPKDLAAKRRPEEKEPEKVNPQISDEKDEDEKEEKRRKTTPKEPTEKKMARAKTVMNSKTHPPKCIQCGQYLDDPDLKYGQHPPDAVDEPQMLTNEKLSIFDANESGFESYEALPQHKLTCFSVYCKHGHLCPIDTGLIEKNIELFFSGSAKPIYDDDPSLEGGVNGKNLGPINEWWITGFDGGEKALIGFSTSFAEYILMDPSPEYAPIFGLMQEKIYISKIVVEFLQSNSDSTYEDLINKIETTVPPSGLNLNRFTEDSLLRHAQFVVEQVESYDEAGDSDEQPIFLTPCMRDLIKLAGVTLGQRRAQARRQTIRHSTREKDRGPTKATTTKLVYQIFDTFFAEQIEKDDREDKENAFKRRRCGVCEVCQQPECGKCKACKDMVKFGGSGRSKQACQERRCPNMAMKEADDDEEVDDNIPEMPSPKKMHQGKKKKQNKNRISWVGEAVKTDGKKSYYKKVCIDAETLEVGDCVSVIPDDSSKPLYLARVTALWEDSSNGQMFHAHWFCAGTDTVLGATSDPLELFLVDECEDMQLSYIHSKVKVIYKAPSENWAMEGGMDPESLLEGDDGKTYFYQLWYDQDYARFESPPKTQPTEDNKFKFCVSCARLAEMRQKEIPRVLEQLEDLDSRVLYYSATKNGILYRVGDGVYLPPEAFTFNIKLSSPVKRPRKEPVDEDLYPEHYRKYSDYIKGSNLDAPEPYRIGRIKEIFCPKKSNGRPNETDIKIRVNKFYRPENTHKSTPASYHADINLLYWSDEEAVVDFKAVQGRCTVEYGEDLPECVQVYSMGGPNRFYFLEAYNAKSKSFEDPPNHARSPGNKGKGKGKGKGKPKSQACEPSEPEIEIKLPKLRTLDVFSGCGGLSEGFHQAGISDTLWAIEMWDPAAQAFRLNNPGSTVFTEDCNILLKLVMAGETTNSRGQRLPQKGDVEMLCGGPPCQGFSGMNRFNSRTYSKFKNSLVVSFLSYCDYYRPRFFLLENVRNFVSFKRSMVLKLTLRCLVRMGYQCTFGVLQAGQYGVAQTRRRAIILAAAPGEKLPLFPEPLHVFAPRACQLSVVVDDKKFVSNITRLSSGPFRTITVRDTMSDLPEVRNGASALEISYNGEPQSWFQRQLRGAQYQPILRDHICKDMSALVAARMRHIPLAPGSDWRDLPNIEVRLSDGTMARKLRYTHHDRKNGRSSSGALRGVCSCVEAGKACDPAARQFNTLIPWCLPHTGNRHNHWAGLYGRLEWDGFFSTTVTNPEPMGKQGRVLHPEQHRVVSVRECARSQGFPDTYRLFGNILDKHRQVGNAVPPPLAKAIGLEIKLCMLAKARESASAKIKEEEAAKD

Row | Compound | IC50 (Dnmt1 [1]; [4]) | further results
1 | O=C1c2ccccc2C(=O)c2c1ccc(O)c2O [VI, Alizarin] | 11 µM | 
2 | CSc1nc2cc(Cl)c(Oc3cccc(Cl)c3Cl)cc2[nH]1 [XI, Triclabendazole, reference compound] | 6.1 µM | 
3 | Oc1cc(Cl)ccc1Oc1ccc(Cl)cc1Cl [III, Triclosan, reference compound] | 3.8 µM | 
4 | O=c1c(O)c(-c2ccc(O)c(O)c2)oc2c(O)c(O)cc(O)c12 [VII, Gossypetin] | 2.9 µM | 
5 | O=C(O)c1cc(O)c2c(c1)[C@@H]([C@H]1c3cc(C(=O)O)cc(O)c3C(=O)c3c(O[C@H]4O[C@H](CO)[C@@H](O)[C@H](O)[C@H]4O)cccc31)c1cccc(O[C@H]3O[C@H](CO)[C@@H](O)[C@H](O)[C@H]3O)c1C2=O [IV, Sennoside A, reference compound] | 0.45 µM | 
6 | O=C(O)C(S)C(S)C(=O)O (centres unmarked) [IX, 2,3-Dimercaptosuccinic Acid, reference compound] | 0.33 µM | 
7 | CC(=O)NCCc1ccc(O)c(-c2c(O)c(O)c3c(c2O)C(=O)c2c(cc(O)c(C(=O)O)c2C(=O)O)C3=O)c1 [II, Laccaic Acid A] | 2.1 µM | IC50 (Dnmt1 [1]; increasing concentrations in the endonuclease-coupled DNA methylation assay, read-out: IC50 value, inhibition of Dnmt1 activity): 0.4 µM; fold more potent at inhibition of Dnmt1 than SG14027 (Dnmt1 [1]; ratio of IC50 values, versus SG14027): 5 fold; outcome of high throughput screen for inhibitors of Dnmt1 activity (Dnmt1 [1]; screen of the Spectrum collection (Microsource)): hit; Glal activity in the presence of compound [2]: full activity; observed melting temperature of Dnmt1 after addition of compound (Dnmt1 [3]): 45.7 °C
8 | O=C1C=CC(=O)c2c(O)cccc21 [VIII, Juglone] | 1.7 µM | 
9 | O=C(O)c1cc(O)c2c(c1)[C@@H]([C@@H]1c3cc(C(=O)O)cc(O)c3C(=O)c3c(O[C@H]4O[C@H](CO)[C@@H](O)[C@H](O)[C@H]4O)cccc31)c1cccc(O[C@H]3O[C@H](CO)[C@@H](O)[C@H](O)[C@H]3O)c1C2=O [V, Sennoside B, reference compound] | 0.45 µM | 
